Paper PMC10035904, “Synthesis of novel sulphamethoxazole derivatives and exploration of their anticancer and antimicrobial properties” (PLOS ONE, 2023)
Converted amounts (≈) assume the structure as drawn.

How the values were obtained:
Format in all cases: cell-based
[1] = test system: Enterococcus faecalis ATCC 29212; assay: Serial dilution on solid agar, E. faecalis; settings: ATCC29212, solid Mueller-Hinton agar, 24 hours
Method: (§1) Antimicrobial activity of compound 16b on solid agar was tested using the same microbial cultures, and the same suspension preparation procedure, as described in above section. All procedures were done in aseptic conditions.
(§2) Mueller-Hinton agar was boiled and kept at to 37 °C during the whole procedure. Compound 16b solution was prepared in DMSO right before experiment. The Agar was mixed with compound solution at different ratios to make the final compound concentrations of 1 mM, 400 μM, 200 μM and 100 μM. Then 10 ml of prepared solution was poured into sterile Petri dishes (85 mm in diameter) and kept in aseptic conditions while the agar solidified. The agar with 0.5% of DMSO served as a negative control. With the help of loop standard microbial cultures by 0.1 ml were poured on the surface of prepared agar with investigative compound. Then Petri dishes were kept for 24 hours in thermostatic conditions.
(§3) The minimal dilution, i.e. the lowest concentration in μg/mL of the investigative and comparison compounds that inhibited visible growth of microorganisms was the minimal inhibitory concentration (MIC).

[2] = test system: Klebsiella pneumoniae ATCC 33499; assay: Serial dilution on solid agar, K. pneumoniae; settings: ATCC33499, solid Mueller-Hinton agar, 24 hours
Method: as §1, §2, §3

[3] = test system: Staphylococcus epidermidis ATCC 12228; assay: Serial dilution on solid agar, S. epidermidis; settings: ATCC12228, solid Mueller-Hinton agar, 24 hours
Method: as §1, §2, §3

[4] = test system: Bacillus cereus ATCC 8035; assay: Serial dilution on solid agar, B. cereus; settings: ATCC8035, solid Mueller-Hinton agar, 24 hours
Method: as §1, §2, §3

[5] = test system: Human foreskin fibroblasts (HF) CRL-4001; assay: MTT cell viability assay, fibroblasts HF; settings: Fibroblast, 72 hours of incubation, n = 3, read-out: EC50 against HF
Method: (§4) The human clear cell renal cell carcinoma line (CaKi-1) was obtained from American Type Culture Collection (ATCC, Manassas, VA). The human prostate carcinoma cell line PPC-1 was originally obtained from ATCC and kindly provided by Prof. Tambet Teesalu (University of Tartu, Estonia). Human foreskin fibroblasts (HF) CRL-4001 were originally obtained from ATCC and kindly provided by Prof. Helder Santos (University of Helsinki, Finland). Cells were cultured in Dulbecco’s Modified Eagle’s GlutaMAX medium (Gibco (Carlsbad, CA, USA) supplemented with 10,000 U/mL penicillin, 10 mg/mL streptomycin (Gibco), and 10% fetal bovine serum (Gibco). During cell passaging, Tryple Express reagent (Gibco) was used for cell detachment. Cell cultures were grown at 37°C in a humidified atmosphere containing 5% CO2. They were used until the passage of 20.
(§5) The effect of synthesized compounds on cell viability was studied using 3-(4,5-dimethylthiazol-2-yl)-2,5-diphenyltetrazolium bromide (MTT; Sigma-Aldrich Co., St Louis, MO, USA) assay, as described elsewhere. […] The absorbance was measured at 570 and 630 nm using a multi-detection microplate reader. The compound effect on cell viability was calculated using a formula (1): Relativecellviability%=A−A0/ANC−A0 (1) Where: […]

[6] = test system: Escherichia coli ATCC 25922; assay: Serial dilution on solid agar, E. coli; settings: ATCC25922, solid Mueller-Hinton agar, 24 hours
Method: as §1, §2, §3

[7] = test system: human clear cell renal cell carcinoma line (CaKi-1); assay: MTT cell viability assay, CaKi-1; settings: 72 hours of incubation, n = 3, read-out: EC50 against CaKi-1
Method: as §4, §5

[8] = test system: Staphylococcus aureus ATCC 25923; assay: Serial broth dilution in liquid medium, S. aureus; settings: Mueller-Hinton broth, 24 hours; result in words
Method: Antibacterial and antifungal susceptibility to the compound 16b was tested using a serial broth dilution technique in Mueller-Hinton broth II (BBL, Cockeysville, USA), as described elsewhere. All procedures were done in aseptic conditions. Standard bacterial and fungal cultures were used: Staphylococcus aureus ATCC 25923, Staphylococcus epidermidis ATCC 12228, Escherichia coli ATCC 25922, Enterococcus faecalis ATCC 29212, Klebsiella pneumoniae ATCC 33499, Pseudomonas aeruginosa ATCC 27853, Proteus mirabilis ATCC 12459, Bacillus cereus ATCC 8035, and Candida albicans ATCC 60193. Standard cultures of nonsporic bacteria S. aureus, S. epidermidis, E. coli, E. faecalis, K. pneumoniae, P. aeruginosa and P. mirabilis were cultivated for 20–24 hours at 37°C in Mueller-Hinton Agar (BBL, Cockeysville, USA). A bacterial suspension was prepared from cultivated bacterial cultures in physiological solution according to turbidity standard 0.5 McFarland. Standard culture of sporic bacteria B. cereus was cultivated for 7 days at 37°C in Mueller-Hinton II Agar. […] Then the absorbance was measured at 600 nm using a multi-detection microplate reader. […]

[9] = test system: Candida albicans ATCC 60193; assay: Serial dilution on solid agar, C. albicans; settings: ATCC60193, solid Mueller-Hinton agar, 24 hours
Method: as §1, §2, §3

[10] = test system: human prostate carcinoma cell line PPC-1; assay: MTT cell viability assay, PPC-1; settings: 72 hours of incubation, n = 3, read-out: EC50 against PPC-1
Method: as §4, §5

MIC [1]: 1000 µM (≈ 462 µg/mL)
MIC [2]: 1000 µM (≈ 462 µg/mL)
MIC [3]: 100 µM (≈ 46.2 µg/mL)
MIC [4]: 400 µM (≈ 185 µg/mL)
MIC [6]: 400 µM (≈ 185 µg/mL)
EC50 [7]: 12.4 ± 1.6 µM
MIC [9]: 400 µM (≈ 185 µg/mL)
EC50 [10]: 10.4 ± 3 µM
SMILES: Cc1cc(NS(=O)(=O)c2ccc(NCCC(=O)NN=Cc3ccc([N+](=O)[O-])o3)cc2)no1 [Compound 16b, N-(5-methylisoxazol-3-yl)-4-((3-(2-((5-nitrofuran-2-yl)methylene)hydrazineyl)-3-oxopropyl)amino)-benzenesulfonamide]
EC50 [5]: 9.5 ± 2.7 µM
sensitivity of S. aureus in liquid medium [8]: most sensitive
